Here are results for one molecule from patent publication US10675267B2, “Methods for detection and eradication of myeloid leukemia stem cells” (priority 2015, dated 2020).

Data set [1] has as its system CD34+ cells from normal aged bone marrow. Put plainly: SL/M2 stromal co-culture with colony and replating assays, normal bone marrow. It is filed as cell-based, human. The note with it: normal aged bone marrow samples. The protocol: (§1) In hypothesis-driven experiments, the splicing modulatory compound 17S-FD-895 was tested to determine efficacy in altering splicing activity in cell lines, and to evaluate effects on AML LSC survival and self-renewal capacity in humanized bone marrow stromal co-cultures and in PRIMAGRAFT™ AML LSC models. Cell culture experiments were performed using 293T and sAML (MOLM-13) cell lines, and SL and M2 bone marrow stromal cell lines. Animal studies were performed using immunocompromised Rag2−/−γc−/−[20] or NOD/SCID-IL2RG mice (Jackson Laboratory, Bar Harbor, Me.). Primary AML and normal control samples were used in in vitro hematopoietic stem and progenitor assays after bone marrow stromal co-culture and treatment with splicing modulatory compounds (FD-895 or 17S-FD-895) or vehicle control (DMSO). Colony formation potential and self-renewal capacity were assessed by counting colony numbers (survival) after two weeks of growth in semi-solid (methylcellulose) media, and subsequent replating capacity (self-renewal) was assessed after transfer to fresh methylcellulose for an additional two weeks of culture. Three primary AML samples were utilized to establish PRIMAGRAFT™ models in immunocompromised mice, and mice engrafted with cells from two of these models (AML-37 and AML-08) were treated with 17S-FD-895 or vehicle (DMSO) to evaluate changes in AML LSC survival and self-renewal capacity in vivo. Data were collected by flow cytometry and qRT-PCR analysis of CD34-selected human LSC-enriched cells from engrafted mice.
(§2) Bone marrow SL/M2 monolayers were established from freshly inactivated (irradiated) cells and then human CD34^+ cells selected from AML primary samples (n=8) and normal controls (CD34^+ cells from cord blood, CB, n=6; or aged bone marrow, n=6) were added. Survival and self-renewal of the CD34+ cells were investigated by methylcellulose-based colony and replating assays. Two SF3B1-targeted splicing modulators, FD-895 or 17S-FD-895, were added at the initiation of co-culture at concentrations ranging from 0.1 to 10 μM.
(§3) As previously described (Goff et al., 2013), humanized bone marrow SL/M2 monolayers were inactivated (irradiated) and then human CD34^+ cells selected from AML primary samples and normal controls were added for two weeks of co-culture, followed by methylcellulose-based colony and replating assays. FD-895 or 17S-FD-895 were added at the initiation of co-culture, with DMSO as a vehicle control.

The test system of data set [2] is AML LSC (CD34+ cells from AML primary samples). Nature of the data set: SL/M2 stromal co-culture with colony formation (survival) and replating (self-renewal) assays, AML. The following applies: two weeks SL/M2 co-culture, 0.1-10 μM, versus DMSO. The format is cell-based, human. On the procedure: as §1, §2
Mouse bone marrow stromal cell lines (SL and M2 mycoplasma-free authenticated cells obtained from ATCC) expressing human interleukin-3 (IL-3), stem cell factor (SCF) and granulocyte-colony stimulating factor (G-CSF), which support erythroid and myeloid cell expansion and differentiation, were maintained under standard culture conditions, as previously described. Briefly, SL cells were grown in complete medium containing DMEM (Corning), 10% FBS, 1% Glutamax, and 1% penicillin-streptomycin (Life Technologies), while M2 cells were grown in complete medium containing RPMI, 10% FBS, 1% Glutamax, and 1% penicillin-streptomycin (all from Life Technologies). Every four passages, cells were selected by addition of G418 and hygromycin to the culture media for one passage (3-4 days), to maintain human cytokine expression. All cell lines were maintained in T-25 or T-75 culture flasks and were passaged at dilutions of 1:5-1:10 every 2-4 days. Low passage aliquots of cells were thawed every two months to ensure consistency of experiments.
as §3
Mouse bone marrow stromal cell lines (SL and M2 mycoplasma-free authenticated cells obtained from ATCC) expressing human interleukin-3 (IL-3), stem cell factor (SCF) and granulocyte-colony stimulating factor (G-CSF), which support erythroid and myeloid cell expansion and differentiation (Hogge et al., 1996), were maintained under standard culture conditions, as previously described (Goff et al., 2013). […]

Entries after “also recorded” stand apart in the source; their conditions may differ.

Consider `CCC(OC)C(C)C1OC1C(O)C(C)/C=C/C=C(\C)C1OC(=O)CC(O)CCC(C)(O)C(OC(C)=O)/C=C/C1C` (stereo not shown) [FD-895, reference compound], for which, in data set [1], the “erythroid colony formation and self-renewal” value is reported as “not significantly changed; also recorded: no effect on erythroid colonies”; the “granulocyte-macrophage (myeloid) colony survival” value is recorded as “slight decrease; also recorded: reduces myeloid colony formation”. Besides, in data set [2], the “AML LSC self-renewal (colony replating)” value was “dose-dependent reduction; also recorded: reduced AML LSC self-renewal” and the “AML LSC survival (colony formation)” value is “dose-dependent reduction; also recorded: reduced AML LSC survival”.
